In ChEMBL document CHEMBL1142445, “Carbonic anhydrase inhibitors: inhibition of Plasmodium falciparum carbonic anhydrase with aromatic/heterocyclic sulfonamides-in vitro and in vivo studies” (Bioorg Med Chem Lett, 2008):
Active and inactive are the calls of the source. No cut-off for these calls is given here.

How the values were obtained:
[1] = test system: Plasmodium falciparum; test: Ex vivo inhibition of Plasmodium falciparum growth in cultured cells after 48hrs as [3H]hypoxanthine uptake; assay type: functional, organism-based
[2] = (§1) Inhibition of Plasmodium falciparum recombinant carbonic anhydrase
[3] = test system: BC; test: Cytotoxicity against human BC cells; assay type: functional, cell-based
[4] = test system: Plasmodium berghei; test: Antimalarial activity against Plasmodium berghei infected mice (Mus musculus) at 2.5 to 25 mg/kg; assay type: functional, organism-based
[5] = test system: KB; test: Cytotoxicity against human KB cells; assay type: functional, cell-based
[6] = test system: Plasmodium falciparum; test: as §1
[7] = test system: Plasmodium berghei; test: Antimalarial activity against Plasmodium berghei infected mice (Mus musculus); assay type: functional; conditions: read-out: ID50 (the source's name)

Structure (SMILES)	IC50 [1] [µM]	Ki [2] [µM]	other results
NS(=O)(=O)c1ccc(NC(=O)c2cc3ccccc3oc2=O)cc1	> 50	5.82	–
COc1ccc2c(CC(=O)Nc3cc(C(F)(F)F)c(S(N)(=O)=O)cc3S(N)(=O)=O)cc(=O)oc2c1	> 50	2.52	–
NS(=O)(=O)c1nnc(NC(=S)NC(=O)Nc2ccccc2)s1	> 50	6.73	–
NS(=O)(=O)c1ccc(NS(=O)(=O)c2ccc(NC(=O)N(c3ccccc3)c3ccccc3)cc2)cc1	> 50	16.5	–
NS(=O)(=O)c1ccc(CNC(=O)c2cc3ccccc3oc2=O)cc1	> 50	5.05	–
CC(=O)Nc1nnc(S(N)(=O)=O)s1 [ACETAZOLAMIDE]	20	0.315	Activity [3]: inactive; Activity [4]: inactive; Activity [5]: inactive
NS(=O)(=O)c1nnc(NS(=O)(=O)c2c(F)c(F)c(F)c(F)c2F)s1	> 50	2.58	–
NS(=O)(=O)c1ccc(/N=C/c2ccc3ccccc3c2Br)cc1	> 50	4.16	–
NS(=O)(=O)c1ccc(NC(=O)Nc2ccc(Cl)c(Cl)c2)cc1	> 50	5.58	–
COc1ccc2c(CC(=O)Nc3ccccc3S(N)(=O)=O)cc(=O)oc2c1	> 50	1.44	–
NS(=O)(=O)c1ccccc1NC(=O)N(c1ccccc1)c1ccccc1	> 50	1.99	–
NS(=O)(=O)c1ccc(CCNC(=O)c2cc3ccccc3oc2=O)cc1	> 50	13.2	–
C[C@@H]1CC[C@H]2[C@@H](C)C(=O)O[C@@H]3O[C@@]4(C)CC[C@@H]1[C@]32OO4	–	–	Activity [6]: inactive
CN(C)c1ccc(/C=N/c2ccc(S(N)(=O)=O)cc2)cc1	> 50	> 25	–
NS(=O)(=O)c1nnc(NC(=O)c2c(F)c(F)c(F)c(F)c2F)s1	> 50	3.44	–
CC(=O)NS(=O)(=O)c1ccc(NC(=S)Nc2ccc(S(N)(=O)=O)cc2)cc1	> 50	4.62	–
CCN(CC)C(=S)SNCc1ccc(S(N)(=O)=O)cc1	> 50	8.39	–
NS(=O)(=O)c1nnc(NS(=O)(=O)C(F)(F)C(F)(F)C(F)(F)C(F)(F)C(F)(F)C(F)(F)C(F)(F)C(F)(F)F)s1	> 50	0.192	–
Cn1nc(S(N)(=O)=O)s/c1=N/C(=O)c1c(F)c(F)c(F)c(F)c1F	> 50	6.87	–

Structure (SMILES)	IC50 [1] [µM]	Ki [2] [µM]	other results
NS(=O)(=O)c1cc(S(N)(=O)=O)c(C(F)(F)F)cc1NC(=O)c1cc2ccccc2oc1=O	> 50	9.03	–
NS(=O)(=O)c1ccc(CNC(=O)N(c2ccccc2)c2ccccc2)cc1	> 50	16	–
NS(=O)(=O)c1ccc(NNC(=O)c2cc3ccccc3oc2=O)cc1	> 50	4.06	–
CN(C)c1ccc(/C=N/CCCc2ccc(S(N)(=O)=O)cc2)cc1	> 50	> 25	–
NS(=O)(=O)c1ccccc1NC(=O)c1cc2ccccc2oc1=O	> 50	18.5	–
C=C[C@H]1CN2CC[C@H]1C[C@H]2[C@H](O)c1ccnc2ccc(OC)cc12	–	–	Activity [6]: inactive
NS(=O)(=O)c1cccc(NC(=O)c2cc3ccccc3oc2=O)c1	> 50	> 25	–
CCN(CC)CCCC(C)Nc1ccnc2cc(Cl)ccc12 (stereo not drawn) [CHLOROQUINE]	–	–	Activity [6]: inactive; ED50 [7]: 5 mg/kg
NS(=O)(=O)c1ccc(CNC(=S)NC(=O)c2ccc(Cl)c(Cl)c2)cc1	1	0.18	Activity [3]: inactive; ED50 [7]: 10 mg/kg; Activity [5]: inactive
NS(=O)(=O)c1ccc(NC(=O)c2ccc(S(N)(=O)=O)cc2)cc1	> 50	3.05	–
COc1ccc2c(CC(=O)Nc3ccc(S(N)(=O)=O)cc3)cc(=O)oc2c1	> 50	0.97	–
NS(=O)(=O)c1ccccc1NS(=O)(=O)c1c(F)c(F)c(F)c(F)c1F	> 50	3.06	–
COc1ccc2c(CC(=O)Nc3cccc(S(N)(=O)=O)c3)cc(=O)oc2c1	> 50	4.58	–
COc1ccc2c(CC(=O)NNc3ccc(S(N)(=O)=O)cc3)cc(=O)oc2c1	> 50	3.51	–
NS(=O)(=O)c1ccc(C/N=C/c2ccccc2Cl)cc1	3.89	0.25	Activity [3]: inactive; Activity [4]: inactive; Activity [5]: inactive
NC(=S)Nc1ccc(S(N)(=O)=O)cc1	> 50	2.1	–
CN(C)c1ccc(/C=N/Cc2ccc(S(N)(=O)=O)cc2)cc1	> 50	> 25	–
CCN(CC)C(=S)SNc1ccc(S(N)(=O)=O)cc1	> 50	3	–
Cn1ccnc1/C=N/CCCc1ccc(S(N)(=O)=O)cc1	> 50	> 25	–
